Results as given in patent publication US9611262B2, “Substituted 2-azabicycles and their use as orexin receptor modulators” (JANSSEN PHARMACEUTICA NV, priority 2014, dated 2017).

Legend:
rat orexin 1 receptor = rat orexin 1 receptor (Rattus norvegicus, UniProt P56718); assay: Rat orexin 1 receptor radioligand binding (competitive); conditions: HEK293 cells stably expressing rat orexin 1 receptor; 4 nM radioligand; averages of 2-20 runs; read-out: rOX1 Ki
Outline: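 Competition binding used HEK293 cells expressing rat OX1 or CHO cells expressing human OX1, with 4 nM final [3H]-labelled thiazolyl-oxadiazolyl-pyrrolidinyl methanone radioligand in PBS. Compounds were tested at 7 concentrations (0.1 nM–10 μM) for 60 min at room temperature, then filtered; 10 μM almorexant defined nonspecific binding. Ki was derived from the one-site IC50 and the radioligand Kd.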

human orexin 1 receptor = human orexin 1 receptor (Homo sapiens (Human), UniProt O43613); assay: Human orexin 1 receptor radioligand binding (competitive); conditions: CHO cells stably expressing human orexin 1 receptor; 4 nM radioligand; averages of 2-20 runs; read-out: hOX1 Ki
Chain of human orexin 1 receptor (O43613 whole entry): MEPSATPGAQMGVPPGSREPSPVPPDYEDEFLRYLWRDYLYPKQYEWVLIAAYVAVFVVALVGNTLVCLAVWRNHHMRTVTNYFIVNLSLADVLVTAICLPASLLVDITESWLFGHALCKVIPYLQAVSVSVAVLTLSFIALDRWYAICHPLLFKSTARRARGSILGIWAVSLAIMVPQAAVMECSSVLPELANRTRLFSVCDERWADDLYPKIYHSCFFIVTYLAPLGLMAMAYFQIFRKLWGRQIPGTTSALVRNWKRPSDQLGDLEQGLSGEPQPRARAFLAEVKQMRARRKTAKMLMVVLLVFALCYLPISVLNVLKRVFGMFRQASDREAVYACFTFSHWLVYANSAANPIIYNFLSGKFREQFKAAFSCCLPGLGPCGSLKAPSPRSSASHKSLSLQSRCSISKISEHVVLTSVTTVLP
Method: The in vitro affinity of the compounds of the invention for the rat/human orexin 1 and human orexin 2 receptors was determined by competitive radioligand binding using [^3H](1-(5-(2-fluoro-phenyl)-2-methyl-thiazol-4-yl)-1-((S)-2-(5-phenyl-(1,3,4)oxadiazol-2-ylmethyl)-pyrrolidin-1-yl)-methanone) (Langmead et al., 2004) and [^3H]EMPA (n-ethyl-2[96-methoxy-pyridin-3-yl)-(toluene-2-sulfonyl)-amino]-N-pyridin-3-ylmethyl acetamide), respectively (Langmead et al., 2004, British Journal of Pharmacology 141:340-346; Malherbe et al., 2004, British Journal of Pharmacology 156:1326-41).
Data are analyzed using pc-Sandy macro and graphed on Graphpad Prism 5. For analysis, each concentration point is averaged from triplicate values and the averaged values are plotted on Graphpad Prism. The IC50 was determined by applying the following equation (GraphPad Prism 5.0, San Diego) for one site competition where X=log (concentration) and Y=specific binding. Top denotes the total [^3H]— (1-(5-(2-fluoro-phenyl)-2-methyl-thiazol-4-yl)-1-((S)-2-(5-phenyl-(1,3,4)oxadiazol-2-ylmethyl)-pyrrolidin-1-yl)-methanone) binding, bottom denotes the nonspecific [^3H]— (1-(5-(2-fluoro-phenyl)-2-methyl-thiazol-4-yl)-1-((S)-2-(5-phenyl-(1,3,4)oxadiazol-2-ylmethyl)-pyrrolidin-1-yl)-methanone) binding. Graphpad Prism calculates Ki value from IC50 and the pre-determined Kd values for [^3H]— (1-(5-(2-fluoro-phenyl)-2-methyl-thiazol-4-yl)-1-((S)-2-(5-phenyl-(1,3,4)oxadiazol-2-ylmethyl)-pyrrolidin-1-yl)-methanone) and [^3H]-EMPA. The Ki for each compound is then uploaded into 3DX. Each run comprises individual compounds in triplicate. The data in Table 1 and Table 2 represent averages from between 2-20 runs
Rat and Human Orexin 1 Receptor Radioligand Binding Studies
Human Embryonic Kidney 293 cells (HEK293) stably expressing rat orexin 1 receptor (Genebank accession number NM_001525) or Chinese ovary cells (CHO) stably expressing human orexin 1 receptor (Genebank accession number […]) were grown to confluency in DMEM (Hyclone, cat # SH30022), 10% FBS, 1× Pen/Strep, 1× sodium pyruvate, 10 mM HEPES, 600 μg/mL G418 and DMEM/F12 (Gibco, Cat #11039), 10% FBS, 1× Pen/Strep, 600 μg/mL G418 media, respectively on 150 cm^2 tissue culture plates, washed with 5 mM EDTA in PBS (HyClone Dulbecco's Phosphate Buffered Saline 1× with Calcium and Magnesium, Cat # SH30264.01, hereafter referred to simply as PBS) and scraped into 50 ml tubes. After centrifugation (2K×G, 5 min at 4° C.), the supernatant was aspirated and the pellets frozen and stored at −80° C. Cells were resuspended in PBS in the presence of 1 tablet of protease inhibitor cocktail (Roche, Cat. #11836145001) per 50 mL. […] Competition binding experiments in 96 well polypropylene plates were performed using [^3H]— (1-(5-(2-fluoro-phenyl)-2-methyl-thiazol-4-yl)-1-((S)-2-(5-phenyl-(1,3,4)oxadiazol-2-ylmethyl)-pyrrolidin-1-yl)-methanone) (Moraveck Corporation, specific activity=35.3 Ci/mmol), diluted to a 10 nM concentration in PBS (4 nM final). Compounds were solubilized in 100% DMSO (Acros Organics, Cat. #61042-1000) and tested over a range of 7 concentrations (from 0.1 nM to 10 μM). The final concentration of DMSO in the reactions is equal to or less than 0.1%. Total and nonspecific binding was determined in the absence and presence of 10 μM almorexant. The total volume of each reaction is 200 μL (20 μL of diluted compounds, 80 μL of [^3H]— (1-(5-(2-fluoro-phenyl)-2-methyl-thiazol-4-yl)-1-((S)-2-(5-phenyl-(1,3,4)oxadiazol-2-ylmethyl)-pyrrolidin-1-yl)-methanone) diluted in PBS and 100 μL of the cell suspension). Reactions were run for 60 min at room temperature and terminated by filtration through GF/C filter plates (PerkinElmer, Cat. #6005174) presoaked in 0.3% polyethylenimine using the cell harvester (PerkinElmer Filtermate). The plates were washed 3 times by aspirating 30 ml PBS through the plates. Plates were dried in 55° C. oven for 60 min, scintillation fluid was added, and the radioactivity was counted on a Topcount (Packard). […]

human orexin 2 receptor = human orexin 2 receptor (Homo sapiens (Human), UniProt O43614); assay: Human orexin 2 receptor radioligand binding ([3H]-EMPA competition); conditions: HEK293 stably expressing human orexin 2 receptor; 2 nM [3H]-EMPA; averages of 2-20 runs; read-out: hOX2 Ki
Chain of human orexin 2 receptor (O43614 whole entry): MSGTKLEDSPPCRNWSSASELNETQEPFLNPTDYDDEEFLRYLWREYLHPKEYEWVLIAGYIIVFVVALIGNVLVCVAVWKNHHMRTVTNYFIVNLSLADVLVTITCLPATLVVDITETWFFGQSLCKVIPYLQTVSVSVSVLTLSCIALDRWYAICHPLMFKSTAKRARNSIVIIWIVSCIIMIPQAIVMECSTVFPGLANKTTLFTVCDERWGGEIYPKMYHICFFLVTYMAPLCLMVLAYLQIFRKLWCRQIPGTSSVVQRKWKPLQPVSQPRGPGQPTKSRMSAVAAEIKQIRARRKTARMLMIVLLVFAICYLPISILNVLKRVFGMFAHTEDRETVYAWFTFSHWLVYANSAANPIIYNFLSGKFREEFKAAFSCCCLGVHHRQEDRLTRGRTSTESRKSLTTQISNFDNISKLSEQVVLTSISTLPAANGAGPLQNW
Outline: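 Membranes-free whole HEK293 cells stably expressing human OX2 receptor incubated with [3H]-EMPA and compound (7 concentrations, 0.1 nM–10 μM, ≤0.1% DMSO) for 60 min at room temperature; nonspecific binding with 10 μM almorexant. Filtration and scintillation counting; one-site IC50 converted to Ki using predetermined Kd, triplicates averaged over 2-20 runs.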

| Ki (rat orexin 1 receptor) | Ki (human orexin 1 receptor) | Ki (human orexin 2 receptor) | SMILES |
| --- | --- | --- | --- |
| 11 nM | 14 nM | 236 nM | Cc1ccc(-n2nccn2)c(C(=O)N2C(C)C3CC(Nc4ccc(C(F)(F)F)cn4)C2C3)n1 (racemic) [Example 58, (R/S)-(6-methyl-3-(2H-1,2,3-triazol-2-yl)pyridin-2-yl)(3-methyl-6-((5-(trifluoromethyl)pyridin-2-yl)amino)-2-azabicyclo[2.2.1]heptan-2-yl)methanone] |
| 20 nM | 53 nM | 4100 nM | Cc1cnc(C(=O)N2C(C)C3CC(Nc4ccc(C(F)(F)F)cn4)C2C3)c(-c2ncccn2)c1 (racemic) [Example 59, (R/S)-(5-methyl-3-(pyrimidin-2-yl)pyridin-2-yl)(3-methyl-6-((5-(trifluoromethyl)pyridin-2-yl)amino)-2-azabicyclo[2.2.1]heptan-2-yl)methanone] |
| 32 nM | 29 nM | 1500 nM | O=C(c1c(F)cccc1-c1ncco1)N1C(CF)C2CC(Oc3ccc(C(F)(F)F)cn3)C1C2 (racemic) [Example 71] |
| 177 nM | 170 nM | 418 nM | Cc1cnc(C(=O)N2C(CC(C)C)C3CC(Oc4ccc(C(F)(F)F)cn4)C2C3)c(-n2nccn2)c1 (racemic) [Example 208, (R/S)-[2-isobutyl-5-[[5-(trifluoromethyl)-2-pyridyl]oxy]-3-azabicyclo[2.2.1]heptan-3-yl]-[5-methyl-3-(triazol-2-yl)-2-pyridyl]methanone] |
| 44 nM | 24 nM | 3000 nM | CC(C)CC1C2CC(Oc3ccc(C(F)(F)F)cn3)C(C2)N1C(=O)c1ccccc1-c1ncccn1 (racemic) [Example 209, (R/S)-[2-isobutyl-5-[[5-(trifluoromethyl)-2-pyridyl]oxy]-3-azabicyclo[2.2.1]heptan-3-yl]-(2-pyrimidin-2-ylphenyl)methanone] |
| 100 nM | 55 nM | 3800 nM | CC(C)CC1C2CC(Oc3ccc(C(F)(F)F)cn3)C(C2)N1C(=O)c1ccccc1-c1ncc(F)cn1 (racemic) [Example 212, (R/S)-[2-(5-fluoropyrimidin-2-yl)phenyl]-[2-isobutyl-5-[[5-(trifluoromethyl)-2-pyridyl]oxy]-3-azabicyclo[2.2.1]heptan-3-yl]methanone] |
| 11 nM | 11 nM | 1500 nM | CCC1C2CC(Oc3ccc(C(F)(F)F)cn3)C(C2)N1C(=O)c1ncc(C)cc1-n1nccn1 (racemic) [Example 216, (R/S)-[2-ethyl-5-[[5-(trifluoromethyl)-2-pyridyl]oxy]-3-azabicyclo[2.2.1]heptan-3-yl]-[5-methyl-3-(triazol-2-yl)-2-pyridyl]methanone] |
| 13 nM | 9 nM | 243 nM | CCC1C2CC(Oc3ccc(C(F)(F)F)cn3)C(C2)N1C(=O)c1cccc(F)c1-c1ncccn1 (racemic) [Example 217, (R/S)-[2-ethyl-5-[[5-(trifluoromethyl)-2-pyridyl]oxy]-3-azabicyclo[2.2.1]heptan-3-yl]-(3-fluoro-2-pyrimidin-2-yl-phenyl)methanone] |
| 5 nM | 8 nM | 595 nM | C[C@@H]1[C@H]2C[C@@H](Oc3ccc(C(F)(F)F)cn3)[C@H](C2)N1C(=O)c1cccc(F)c1-n1nccn1 (relative stereo) [Example 27, (3-fluoro-2-(2H-1,2,3-triazol-2-yl)phenyl)((1S*,3R*,4R*,6R*)-3-methyl-6-((5-(trifluoromethyl)pyridin-2-yl)oxy)-2-azabicyclo[2.2.1]heptan-2-yl)methanone] |
| 5 nM | 14 nM | 836 nM | C[C@@H]1[C@H]2C[C@@H](Oc3ccc(C(F)(F)F)cn3)[C@H](C2)N1C(=O)c1cc(F)ccc1-n1nccn1 (relative stereo) [Example 29, (5-fluoro-2-(2H-1,2,3-triazol-2-yl)phenyl)((1S*,3R*,4R*,6R*)-3-methyl-6-((5-(trifluoromethyl)pyridin-2-yl)oxy)-2-azabicyclo[2.2.1]heptan-2-yl)methanone] |
| 6 nM | 8 nM | 1900 nM | C[C@@H]1[C@H]2C[C@@H](Oc3ccc(C(F)(F)F)cn3)[C@H](C2)N1C(=O)c1ncccc1-c1ncccn1 (relative stereo) [Example 32, ((1S*,3R*,4R*,6R*)-3-methyl-6-((5-(trifluoromethyl)pyridin-2-yl)oxy)-2-azabicyclo[2.2.1]heptan-2-yl)(3-(pyrimidin-2-yl)pyridin-2-yl)methanone] |
| 11 nM | 14 nM | 6300 nM | Cc1cnc(C(=O)N2[C@H](C)[C@H]3C[C@@H](Oc4ccc(C(F)(F)F)cn4)[C@@H]2C3)c(-c2ncccc2F)c1 (relative stereo) [Example 34, (3-fluoro-5′-methyl-[2,3′-bipyridin]-2′-yl)((1S*,3R*,4R*,6R*)-3-methyl-6-((5-(trifluoromethyl)pyridin-2-yl)oxy)-2-azabicyclo[2.2.1]heptan-2-yl)methanone] |
| 216 nM | 283 nM | 4900 nM | C[C@@H]1[C@H]2C[C@@H](Oc3ccc(C(F)(F)F)nc3)[C@H](C2)N1C(=O)c1cccc(F)c1-n1nccn1 (relative stereo) [Example 38, (3-fluoro-2-(2H-1,2,3-triazol-2-yl)phenyl)((1S*,3R*,4R*,6R*)-3-methyl-6-((6-(trifluoromethyl)pyridin-3-yl)oxy)-2-azabicyclo[2.2.1]heptan-2-yl)methanone] |
| 90 nM | 123 nM | 3600 nM | Cc1cccc(C(=O)N2[C@H](C)[C@H]3C[C@@H](Oc4ccc(C(F)(F)F)nc4)[C@@H]2C3)c1-n1nccn1 (relative stereo) [Example 39, (3-methyl-2-(2H-1,2,3-triazol-2-yl)phenyl)((1S*,3R*,4R*,6R*)-3-methyl-6-((6-(trifluoromethyl)pyridin-3-yl)oxy)-2-azabicyclo[2.2.1]heptan-2-yl)methanone] |
| 24 nM | 29 nM | 4300 nM | Cc1ccc(-n2nccn2)c(C(=O)N2[C@H](C)[C@H]3C[C@@H](Oc4cnc(C(F)(F)F)cn4)[C@@H]2C3)n1 (relative stereo) [Example 46, (6-methyl-3-(2H-1,2,3-triazol-2-yl)pyridin-2-yl)((1S*,3R*,4R*,6R*)-3-methyl-6-((5-(trifluoromethyl)pyrazin-2-yl)oxy)-2-azabicyclo[2.2.1]heptan-2-yl)methanone] |
